Reference: patent publication US11166942B2 (PRAXIS BIOTECH LLC, priority 2018, dated 2021)
Where two headings read alike, the source gives them in different places. Each block holds one molecule with its values, some of them ahead of it.

Key:
[1] = tested on: Chinese hamster ovary (CHO) cells; experiment: Protein translation assay (puromycin labelling, CHO cells); assay type: cell-based; details: media alone = 100%; for activity at 1 µM: Cricetulus griseus, CHO
Experimental: Chinese hamster ovary (CHO) cells were maintained at 37° C. and 5% CO2 in Dulbecco's Modified Eagle's Media (DMEM) supplemented with 10% fetal bovine serum, 2 mM L-glutamine, 100 U/ml penicillin, and 100 μg/ml streptomycin. After reaching 80% of confluence, cells were detached and seeded on 6 well plates in complete media, allowed to recover overnight and treated for 2 hours with 1 μM of the test compound (to assess protein synthesis levels in unstressed condition), or for 1 hour with 100 nM or 1 μM of the test compound and then co-treated with 300 nM Tg and 100 nM or 1 μM of the test compound (to assess the recovery of protein synthesis in a stressed condition). Cells treated with Tg alone were used as controls.
After the 2 hours treatments, media were replaced by adding 10 μg/ml puromycin (Sigma Aldrich #P8833) in complete media for 30 min. Media were removed and cells were lysed with SDS-PAGE lysis buffer. Lysates were transferred to 1.5 ml tubes and sonicated for 3 min and total protein amount were quantified using BCA Protein Assay Kit (Pierce). Equal amount of protein (30 μg) was loaded on SDS-PAGE gels. Proteins were transferred onto 0.2 μm PVDF membranes (BioRad) and probed with primary antibodies diluted in Tris-buffered saline supplemented with 0.1% Tween 20 (Merck #S6996184 505) and 3% bovine serum albumin (Rockland #BSA-50).
Puromycin (12D10) (Merck #MABE343) and β-actin (Sigma Aldrich #A5441) antibodies were used as primary antibody. A HRP-conjugated secondary antibody (Rockland) was employed to detect immune-reactive bands using enhanced chemiluminescence (ECL Western Blotting Substrate, Pierce). Quantification of protein bands was done by densitometry using ImageJ software.
Percent increase of protein synthesis in unstressed cells (without Tg treatment) in the presence of media alone or certain test compounds is shown in Table 3 The percentage levels were normalized to the media alone condition, which correspond to 100% protein synthesis.
Percent recovery of protein synthesis in stressed cells (with Tg treatment) due to the test compounds at 100 nM or 1 μM is also shown in Table 3. The levels were normalized to the media alone and to Tg alone conditions, which correspond to 100% and 0% respectively.

ATF4 = ATF4 expression inhibition assay (ATF4 5'UTR luciferase reporter, Tg-stressed HEK293T cells); assay type: cell-based, human; details: for inhibition at 0.1 µM: read-out: % ATF4 inhibition at 100 nM; for IC50: read-out: ATF4 inhbition IC50; for inhibition at 1 µM: read-out: % ATF4 inhibition at 1 μM
Experimental: The ATF4 reporter was prepared by fusing the human full length 5′UTR of ATF4 (NCBI Accession No. BC022088.2) upstream of the firefly luciferase coding sequence lacking the initiator methionine. The fused sequence was cloned into pLenti-EF1a-C-Myc-DDK-IRES-Puro cloning vector (Origen #PS100085) using standard methods. Virus production was carried out by using Lenti-X™ Packaging Single Shots Protocol (Clonetech #631276). Viral particles were used to transduce HEK293T cells (ATCC #CRL-3216, ATCC Manassas, Va.), which were subsequently selected with puromycin to generate stable cell line. Cells were maintained at 37° C. and 5% CO2 in DMEM-F12 (Hyclone #SH30023.02) supplemented with 10% heat-inactivated fetal bovine serum (Gibco #16000-044), 2 mM L-glutamine (Gibco #25030-081), 100 U/ml penicillin, and 100 μg/ml streptomycin (Gibco #15140-122).
HEK293T cells carrying the ATF4 luciferase reporter were plated on 96-well plates (Nunc) at 10,000 cells per well. Cells were treated two days after seeding with 100 nM thapsigargin (Tg) (Sigma-Aldrich #T9033) in the presence of 100 nM or 1 μM. For the assessment of the half-maximal inhibitory concentration (IC50) for selected compounds, dose-response assays were performed. Compounds were serially diluted using DMSO ranging from 0.1 nM to 1 μM. Cells without treatment or cells treated with Tg alone were used as controls. Assay plates containing cells were incubated for 3 hours at 37° C.
Luciferase reactions were performed using Luciferase Assay System (Promega #E1501) as specified by the manufacturer. Luminescence was read with an integration time of 1 s and a gain of 110 using a Cytation-5 multi-mode microplate reader (BioTek). Relative luminescence units were normalized to Tg treatment (0% inhibition) and untreated cells (100% inhibition) and the percentage of ATF4 inhibition was calculated.
Percentages of ATF4 inhibition after induction with Tg in the presence of 100 nM or 1 μM of certain test compounds are shown in Table 2. Also shown in Table 2 is the calculated IC50 for certain test compounds. […] Accordingly, inhibition of ATF4 expression as a result of the test compound indicates suppression of the ISR pathway.

[2] = 2 h, unstressed CHO cells, 1 μM, 2 hours, read-out: % Protein synthesis in unstressed cells (1 μM test compound)
[3] = CHO cells stressed with 300 nM Tg, 1 μM compound, Tg alone = 0%, read-out: % Recovery of protein expression (1 μM test compound)
[4] = Homo sapiens, HEK-293T, 3 h, 100 nM test compound, 100 nM thapsigargin, 3 hours, HEK293T ATF4 luciferase reporter
[5] = Homo sapiens, HEK-293T, 3 h, 100 nM thapsigargin, 3 hours, HEK293T ATF4 luciferase reporter
[6] = Homo sapiens, HEK-293T, 3 h, 1 μM test compound, 100 nM thapsigargin, 3 hours, HEK293T ATF4 luciferase reporter

Compound: O=C(COc1ccc(Cl)c(F)c1)NN1CCN(C[C@@H](O)COc2ccc(Cl)c(F)c2)CC1 (single isomer, unassigned) [Compound 50]
activity at 1 µM [1, 2]: 96.8%
activity at 1 µM [1, 3]: 7.4%
inhibition at 0.1 µM (ATF4; [4]): 97.2%
IC50 (ATF4; [5]): 1.93 nM
inhibition at 1 µM (ATF4; [6]): 100%

Compound: O=C(NN1CCN(CC(O)COc2ccc(Cl)c(F)c2)CC1)c1cc2cc(Cl)ccc2o1 (stereo not shown) [Compound 19, 5-chloro-N-(4-(3-(4-chloro-3-fluorophenoxy)-2-hydroxypropyl)piperazin-1-yl)benzofuran-2-carboxamide]
activity at 1 µM [1, 2]: 115%
activity at 1 µM [1, 3]: 175%
inhibition at 0.1 µM (ATF4; Homo sapiens, HEK-293T, 3 h): 87.3%
inhibition at 1 µM (ATF4; Homo sapiens, HEK-293T, 3 h): 95.8%
IC50 (ATF4; Homo sapiens, HEK-293T, 3 h): 11.5 nM

IC50 (ATF4; [5]): < 100 nM
Compound: O=C(COc1ccc(Cl)c(F)c1)NN1CCC(NC(=O)c2nc3cc(Cl)ccc3s2)CC1 [Compound 10, 5-chloro-N-(1-(2-(4-chloro-3-fluorophenoxy)acetamido)piperidin-4-yl)benzo[d]thiazole-2-carboxamide]
inhibition at 0.1 µM (ATF4; [4]): 68.2%
inhibition at 1 µM (ATF4; [6]): 87.2%

Compound: O=C(NN1CCN(CCCOc2ccc(Cl)c(F)c2)CC1)c1cc2cc(Cl)ccc2o1 [Compound 18, 5-chloro-N-(4-(3-(4-chloro-3-fluorophenoxy)propyl)piperazin-1-yl) benzofuran-2-carboxamide]
activity at 1 µM [1, 2]: 89.3%
activity at 1 µM [1, 3]: 143%
inhibition at 0.1 µM (ATF4; Homo sapiens, HEK-293T, 3 h): 59.1%
inhibition at 1 µM (ATF4; Homo sapiens, HEK-293T, 3 h): 94.6%
IC50 (ATF4; Homo sapiens, HEK-293T, 3 h): 76.3 nM

Compound: O=C(NN1CCC(NCCOc2ccc(Cl)c(F)c2)CC1)c1ccc2cc(Cl)ccc2n1 [Compound 23, 6-chloro-N-(4-((2-(4-chloro-3-fluorophenoxy)ethyl)amino)piperidin-1-yl)quinoline-2-carboxamide]
activity at 1 µM [1, 2]: 178%
activity at 1 µM [1, 3]: 249%
inhibition at 0.1 µM (ATF4; Homo sapiens, HEK-293T, 3 h): 67.2%
inhibition at 1 µM (ATF4; Homo sapiens, HEK-293T, 3 h): 89.3%
IC50 (ATF4; Homo sapiens, HEK-293T, 3 h): 55.6 nM

Compound: O=C(NN1CCN(CC(O)COc2ccc(Cl)c(F)c2)CC1)C1Cc2cc(Cl)ccc2O1 (stereo not shown) [Compound 13, 5-chloro-N-(4-(3-(4-chloro-3-fluorophenoxy)-2-hydroxypropyl)piperazin-1-yl)-2,3-dihydrobenzofuran-2-carboxamide]
% ATF4 inhibition at 100 nM (ATF4; 100 nM test compound, 100 nM thapsigargin, 3 hours, HEK293T ATF4 luciferase reporter): 60.7%
IC50 (ATF4; 100 nM thapsigargin, 3 hours, HEK293T ATF4 luciferase reporter): < 100 nM
% ATF4 inhibition at 1 μM (ATF4; 1 μM test compound, 100 nM thapsigargin, 3 hours, HEK293T ATF4 luciferase reporter): 86.7%

Compound: O=C(COc1ccc(Cl)c(F)c1)NN1CCC(NC(=O)c2ccc3cc(Cl)ccc3n2)CC1 [Compound 3, 6-chloro-N-(1-(2-(4-chloro-3-fluorophenoxy)acetamido)piperidin-4-yl)quinoline-2-carboxamide]
% Recovery of protein expression (100 nM test compound) ([1]; CHO cells stressed with 300 nM Tg, 100 nM compound, Tg alone = 0%): 81.6%
activity at 1 µM [1, 2]: 152%
activity at 1 µM [1, 3]: 190%
inhibition at 0.1 µM (ATF4; [4]): 88.1%
IC50 (ATF4; [5]): 10.6 nM
inhibition at 1 µM (ATF4; [6]): 92.2%

IC50 (ATF4; [5]): < 100 nM
Compound: O=C(COc1ccc(Cl)c(F)c1)NC1CCN(NC(=O)c2nc3cc(Cl)ccc3s2)CC1 [Compound 9, 5-chloro-N-(4-(2-(4-chloro-3-fluorophenoxy)acetamido)piperidin-1-yl)benzo[d]thiazole-2-carboxamide]
inhibition at 0.1 µM (ATF4; [4]): 77.1%
inhibition at 1 µM (ATF4; [6]): 86.8%

Compound: O=C(NC1CCN(NCC(O)COc2ccc(Cl)c(F)c2)CC1)c1cc2cc(Cl)ccc2o1 (stereo not shown) [Compound 26, 5-chloro-N-(1-((3-(4-chloro-3-fluorophenoxy)-2-hydroxypropyl)amino)piperidin-4-yl)benzofuran-2-carboxamide]
inhibition at 0.1 µM (ATF4; [4]): 37.5%
inhibition at 1 µM (ATF4; [6]): 49.4%

Compound: O=C(COc1ccc(Cl)c([N+](=O)[O-])c1)NC1CCN(NC(=O)COc2ccc(Cl)c(F)c2)CC1 [Compound 39, 2-(4-chloro-3-fluorophenoxy)-N-(4-(2-(4-chloro-3-nitrophenoxy)acetamido)piperidin-1-yl)acetamide]
inhibition at 0.1 µM (ATF4; Homo sapiens, HEK-293T, 3 h): 91%
inhibition at 1 µM (ATF4; Homo sapiens, HEK-293T, 3 h): 91.5%
IC50 (ATF4; Homo sapiens, HEK-293T, 3 h): < 100 nM

IC50 (ATF4; [5]): > 1000 nM
Compound: O=C(NC1CCN(NCC(O)COc2ccc(Cl)c(F)c2)CC1)c1ccc2cc(Cl)ccc2n1 (stereo not shown) [Compound 25, 6-chloro-N-(1-((3-(4-chloro-3-fluorophenoxy)-2-hydroxypropyl)amino)piperidin-4-yl)quinoline-2-carboxamide]
inhibition at 0.1 µM (ATF4; [4]): 8.1%
inhibition at 1 µM (ATF4; [6]): 8.5%

IC50 (ATF4; [5]): < 100 nM
Compound: O=C(COc1ccc(Cl)c(F)c1)NC1CCN(NC(=O)C2Cc3cc(Cl)ccc3O2)CC1 (stereo not shown) [Compound 11, 5-chloro-N-(4-(2-(4-chloro-3-fluorophenoxy)acetamido)piperidin-1-yl)-2,3-dihydrobenzofuran-2-carboxamide]
inhibition at 0.1 µM (ATF4; [4]): 67.8%
inhibition at 1 µM (ATF4; [6]): 90.5%

Compound: O=C(NN1CCN(CC(O)COc2ccc(C(F)(F)F)cc2)CC1)c1ccc2cc(Cl)ccc2n1 (stereo not shown) [Compound 71, 6-chloro-N-(4-(2-hydroxy-3-(4-(trifluoromethyl)phenoxy)propyl)piperazin-1-yl)quinoline-2-carboxamide]
inhibition at 0.1 µM (ATF4; Homo sapiens, HEK-293T, 3 h): 83.4%
inhibition at 1 µM (ATF4; Homo sapiens, HEK-293T, 3 h): 89.9%
IC50 (ATF4; Homo sapiens, HEK-293T, 3 h): < 100 nM

IC50 (ATF4; [5]): < 100 nM
Compound: O=C(COc1ccc(C(F)(F)F)cc1)NC1CCN(NC(=O)COc2ccc(C(F)(F)F)cc2)CC1 [Compound 35, N,N′-(piperidine-1,4-diyl)bis(2-(4-(trifluoromethyl)phenoxy)acetamide)]
inhibition at 0.1 µM (ATF4; [4]): 92.1%
inhibition at 1 µM (ATF4; [6]): 91.6%

IC50 (ATF4; [5]): < 100 nM
Compound: O=C(COc1ccc(Cl)c(F)c1)NN1CCC(NC(=O)C2Cc3cc(Cl)ccc3O2)CC1 (stereo not shown) [Compound 12, 5-chloro-N-(1-(2-(4-chloro-3-fluorophenoxy)acetamido)piperidin-4-yl)-2,3-dihydrobenzofuran-2-carboxamide]
inhibition at 0.1 µM (ATF4; [4]): 69.4%
inhibition at 1 µM (ATF4; [6]): 88.5%

IC50 (ATF4; [5]): > 1000 nM
Compound: O=C(COc1ccc(Cl)c(F)c1)NC1CCN(NCC(O)COc2ccc(Cl)c(F)c2)CC1 (stereo not shown) [Compound 7, 2-(4-chloro-3-fluorophenoxy)-N-(1-((3-(4-chloro-3-fluorophenoxy)-2-hydroxypropyl)amino)piperidin-4-yl)acetamide]
inhibition at 0.1 µM (ATF4; [4]): 16.1%
inhibition at 1 µM (ATF4; [6]): 13.9%

IC50 (ATF4; [5]): > 1000 nM
Compound: O=C(NC1CCN(NCC(O)COc2ccc(Cl)c(F)c2)CC1)C1Cc2cc(Cl)ccc2O1 (stereo not shown) [Compound 70, 5-chloro-N-(1-((3-(4-chloro-3-fluorophenoxy)-2-hydroxypropyl)amino)piperidin-4-yl)-2,3-dihydrobenzofuran-2-carboxamide]
inhibition at 0.1 µM (ATF4; [4]): 0.4%
inhibition at 1 µM (ATF4; [6]): 21.4%
